Read-outs that look alike come from different tables or passages of the source.
Key:
Assay in all cases: Radiometric protein kinase assay (33PanQinase Activity Assay)
Assay type in all cases: biochemical
[1] = target: T1, B-RAF-VE (Homo sapiens, UniProt P15056, V600E)
T1 construct: made in house; host or cells: Sf9 insect cells, baculovirus
Excerpt: (§1) AKTI1, ARK5, Aurora-A, Aurora-B, B-RAF-VE, CDK2/CycA, CDK4/CycD1, CK2-alpha1 (catalytic subunit of CK2), EGF-R, EPHB4, ERBB2, FAK, IGF1-R, SRC, VEGF-R2, VEGF-R3, FLT3, INS-R, MET, PDGFR-beta, PLK1, SAK, TIE2, COT.
(§2) All the protein kinases were expressed in Sf9 insect cells as human recombinant GST fusion proteins or His-tagged proteins by the baculovirus expression system. Kinases were purified by affinity chromatography either by GSH-agarose (Sigma) or Ni—NTH-agarose (Qiagen). The purity of the kinases was tested by SDS-PAGE/silver staining, and the identity of the kinases was verified by Western blot analysis with specific antibodies or mass spectroscopy.
(§3) A radiometric protein kinase assay (33PanQinase® Activity Assay) was used to measure the kinase activity for the 24 protein kinases. The kinase assays were carried out in 96-well FlashPlates™ from Perkin Elmer/NEN (Boston, Mass., USA) in a reaction volume of 50 μl. The reaction mixture was pipetted in 4 steps in the following sequence: • 20 μl of assay buffer • 5 μl of ATP solution (in H2O) • 5 μl of test compound (in 10% DMSO) • 10 μl of substrate/10 μl of enzyme solution (premixed)
(§4) The assays for all the enzymes contained 60 mM HEPES-NaOH, pH 7.5, 3 mM MgCl2, 3 mM MnCl2, 3 μM Na orthovanadate, 1.2 mM DTT, 50 μg/ml PEG20000, 1 μM [γ-^33P]-ATP (about 5×10^5 cpm per well).
(§5) The reaction mixture was incubated at 30° C. for 80 minutes. The reaction was stopped with 50 μl of 2% (v/v) H3PO4. The plates were aspirated and washed twice with 200 μl of 0.9% (w/v) NaCl. The incorporation of ^33Pi was determined using a microtiter plates scintillation counter (Microbeta Trilux, Wallac).

[2] = target: T2, AKT1 (Homo sapiens, UniProt P31749)
T2 construct: made in house; host or cells: Sf9 insect cells, baculovirus
Excerpt: as §1, §2, §3, §4, §5

[3] = target: T3, Aurora-B (Homo sapiens, UniProt Q96GD4)
T3 construct: made in house; host or cells: Sf9 insect cells, baculovirus
Excerpt: as §1, §2, §3, §4, §5

[4] = target: T4, SAK (Homo sapiens, UniProt O00444)
T4 construct: made in house; host or cells: Sf9 insect cells, baculovirus
T4 sequence (O00444 1-970): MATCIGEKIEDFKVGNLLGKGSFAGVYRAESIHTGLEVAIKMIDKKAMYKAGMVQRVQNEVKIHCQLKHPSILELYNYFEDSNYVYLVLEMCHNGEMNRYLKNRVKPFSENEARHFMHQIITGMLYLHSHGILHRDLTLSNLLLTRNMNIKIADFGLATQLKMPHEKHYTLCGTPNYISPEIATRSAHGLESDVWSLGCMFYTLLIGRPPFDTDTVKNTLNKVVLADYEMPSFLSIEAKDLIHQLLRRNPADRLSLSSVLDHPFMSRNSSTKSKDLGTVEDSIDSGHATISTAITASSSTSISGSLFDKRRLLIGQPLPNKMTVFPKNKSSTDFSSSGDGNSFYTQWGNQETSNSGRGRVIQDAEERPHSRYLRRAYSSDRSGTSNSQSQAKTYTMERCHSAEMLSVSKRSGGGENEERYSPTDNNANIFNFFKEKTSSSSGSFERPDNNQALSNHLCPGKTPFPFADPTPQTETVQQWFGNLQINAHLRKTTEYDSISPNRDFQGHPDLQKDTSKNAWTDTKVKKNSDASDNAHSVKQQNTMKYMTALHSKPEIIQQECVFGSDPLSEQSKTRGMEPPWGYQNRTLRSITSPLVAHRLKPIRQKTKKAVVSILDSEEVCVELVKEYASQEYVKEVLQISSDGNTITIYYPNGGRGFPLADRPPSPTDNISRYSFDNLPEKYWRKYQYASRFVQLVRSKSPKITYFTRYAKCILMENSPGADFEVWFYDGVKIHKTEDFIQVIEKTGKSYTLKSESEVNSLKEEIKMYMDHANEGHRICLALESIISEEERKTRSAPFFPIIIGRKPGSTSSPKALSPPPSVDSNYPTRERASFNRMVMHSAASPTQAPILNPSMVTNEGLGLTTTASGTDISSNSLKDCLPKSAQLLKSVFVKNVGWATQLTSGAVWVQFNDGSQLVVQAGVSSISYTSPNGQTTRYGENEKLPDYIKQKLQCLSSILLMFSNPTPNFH
Excerpt: as §1, §2, §3, §4, §5

[5] = target: T5, ERBB2 (Homo sapiens, UniProt P04626)
T5 construct: made in house; host or cells: Sf9 insect cells, baculovirus
Excerpt: as §1, §2, §3, §4, §5

[6] = target: T6, VEGF-R3 (Homo sapiens, UniProt P35916)
T6 construct: made in house; host or cells: Sf9 insect cells, baculovirus
Excerpt: as §1, §2, §3, §4, §5

[7] = target: T7, MET (Homo sapiens, UniProt P08581)
T7 construct: made in house; host or cells: Sf9 insect cells, baculovirus
Excerpt: as §1, §2, §3, §4, §5

[8] = target: T8, Aurora-A (Homo sapiens, UniProt O14965)
T8 construct: made in house; host or cells: Sf9 insect cells, baculovirus
T8 sequence (O14965 1-403): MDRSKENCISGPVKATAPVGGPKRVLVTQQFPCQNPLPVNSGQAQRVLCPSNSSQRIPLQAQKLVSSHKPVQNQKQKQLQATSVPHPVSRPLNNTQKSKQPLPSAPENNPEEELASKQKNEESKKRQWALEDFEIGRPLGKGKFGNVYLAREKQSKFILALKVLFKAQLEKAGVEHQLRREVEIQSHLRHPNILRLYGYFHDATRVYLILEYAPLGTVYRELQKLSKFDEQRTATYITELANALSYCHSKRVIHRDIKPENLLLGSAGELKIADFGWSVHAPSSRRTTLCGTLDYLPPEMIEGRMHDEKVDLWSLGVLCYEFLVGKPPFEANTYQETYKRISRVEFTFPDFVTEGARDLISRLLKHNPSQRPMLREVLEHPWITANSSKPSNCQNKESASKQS
Excerpt: as §1, §2, §3, §4, §5

[9] = target: T9, COT (Homo sapiens, UniProt P41279)
T9 construct: made in house; host or cells: Sf9 insect cells (baculovirus)
Excerpt: as §1, §2, §3, §4, §5

[10] = 1 μM ATP, read-out: IC50 values [μM] B-RAF-VE
[11] = 1 μM ATP, read-out: IC50 values [μM] AKT1
[12] = 1 μM ATP, read-out: IC50 values [μM] Aurora-B
[13] = 1 μM ATP, read-out: IC50 values [μM] SAK
[14] = 1 μM ATP, read-out: IC50 values [μM] ERBB2
[15] = 1 μM ATP, read-out: IC50 values [μM] VEGF-R3
[16] = 1 μM ATP, read-out: IC50 values [μM] MET
[17] = 1 μM ATP, read-out: IC50 values [μM] Aurora-A
[18] = 1 μM ATP, autophosphorylation, read-out: IC50 values [μM] COT

T9 sequence (P41279 whole entry): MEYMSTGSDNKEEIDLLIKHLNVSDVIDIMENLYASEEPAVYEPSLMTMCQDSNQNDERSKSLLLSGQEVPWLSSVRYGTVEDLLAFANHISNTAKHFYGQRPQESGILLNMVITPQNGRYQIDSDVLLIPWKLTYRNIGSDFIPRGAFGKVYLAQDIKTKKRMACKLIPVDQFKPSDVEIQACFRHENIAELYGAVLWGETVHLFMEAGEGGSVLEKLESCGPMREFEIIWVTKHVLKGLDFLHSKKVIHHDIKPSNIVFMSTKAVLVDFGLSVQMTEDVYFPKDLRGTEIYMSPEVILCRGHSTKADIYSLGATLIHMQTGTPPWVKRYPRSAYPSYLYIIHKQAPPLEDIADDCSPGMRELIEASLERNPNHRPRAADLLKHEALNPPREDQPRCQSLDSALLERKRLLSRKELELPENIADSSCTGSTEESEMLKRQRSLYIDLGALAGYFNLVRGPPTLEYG
T1 sequence (P15056 whole entry V600E): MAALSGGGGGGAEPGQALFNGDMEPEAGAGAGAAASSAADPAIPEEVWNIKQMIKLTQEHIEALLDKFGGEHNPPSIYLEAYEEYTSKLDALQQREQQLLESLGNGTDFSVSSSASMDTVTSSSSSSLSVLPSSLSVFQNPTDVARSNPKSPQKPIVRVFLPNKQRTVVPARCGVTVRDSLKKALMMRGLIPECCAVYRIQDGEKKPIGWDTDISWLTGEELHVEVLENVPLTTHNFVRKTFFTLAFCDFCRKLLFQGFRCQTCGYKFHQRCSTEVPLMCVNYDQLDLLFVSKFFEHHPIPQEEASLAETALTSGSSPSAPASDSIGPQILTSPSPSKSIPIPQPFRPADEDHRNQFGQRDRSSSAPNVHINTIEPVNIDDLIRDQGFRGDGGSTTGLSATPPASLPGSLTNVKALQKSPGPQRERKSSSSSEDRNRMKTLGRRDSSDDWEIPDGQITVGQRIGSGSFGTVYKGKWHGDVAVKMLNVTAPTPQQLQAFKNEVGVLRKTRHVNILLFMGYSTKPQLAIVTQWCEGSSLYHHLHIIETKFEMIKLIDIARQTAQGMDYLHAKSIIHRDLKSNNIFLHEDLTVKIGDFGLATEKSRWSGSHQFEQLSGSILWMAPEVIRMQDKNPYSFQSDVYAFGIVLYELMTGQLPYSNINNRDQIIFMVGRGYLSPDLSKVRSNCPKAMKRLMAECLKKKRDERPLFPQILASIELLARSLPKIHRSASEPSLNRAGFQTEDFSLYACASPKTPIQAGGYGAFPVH
T6 sequence (P35916 25-1363): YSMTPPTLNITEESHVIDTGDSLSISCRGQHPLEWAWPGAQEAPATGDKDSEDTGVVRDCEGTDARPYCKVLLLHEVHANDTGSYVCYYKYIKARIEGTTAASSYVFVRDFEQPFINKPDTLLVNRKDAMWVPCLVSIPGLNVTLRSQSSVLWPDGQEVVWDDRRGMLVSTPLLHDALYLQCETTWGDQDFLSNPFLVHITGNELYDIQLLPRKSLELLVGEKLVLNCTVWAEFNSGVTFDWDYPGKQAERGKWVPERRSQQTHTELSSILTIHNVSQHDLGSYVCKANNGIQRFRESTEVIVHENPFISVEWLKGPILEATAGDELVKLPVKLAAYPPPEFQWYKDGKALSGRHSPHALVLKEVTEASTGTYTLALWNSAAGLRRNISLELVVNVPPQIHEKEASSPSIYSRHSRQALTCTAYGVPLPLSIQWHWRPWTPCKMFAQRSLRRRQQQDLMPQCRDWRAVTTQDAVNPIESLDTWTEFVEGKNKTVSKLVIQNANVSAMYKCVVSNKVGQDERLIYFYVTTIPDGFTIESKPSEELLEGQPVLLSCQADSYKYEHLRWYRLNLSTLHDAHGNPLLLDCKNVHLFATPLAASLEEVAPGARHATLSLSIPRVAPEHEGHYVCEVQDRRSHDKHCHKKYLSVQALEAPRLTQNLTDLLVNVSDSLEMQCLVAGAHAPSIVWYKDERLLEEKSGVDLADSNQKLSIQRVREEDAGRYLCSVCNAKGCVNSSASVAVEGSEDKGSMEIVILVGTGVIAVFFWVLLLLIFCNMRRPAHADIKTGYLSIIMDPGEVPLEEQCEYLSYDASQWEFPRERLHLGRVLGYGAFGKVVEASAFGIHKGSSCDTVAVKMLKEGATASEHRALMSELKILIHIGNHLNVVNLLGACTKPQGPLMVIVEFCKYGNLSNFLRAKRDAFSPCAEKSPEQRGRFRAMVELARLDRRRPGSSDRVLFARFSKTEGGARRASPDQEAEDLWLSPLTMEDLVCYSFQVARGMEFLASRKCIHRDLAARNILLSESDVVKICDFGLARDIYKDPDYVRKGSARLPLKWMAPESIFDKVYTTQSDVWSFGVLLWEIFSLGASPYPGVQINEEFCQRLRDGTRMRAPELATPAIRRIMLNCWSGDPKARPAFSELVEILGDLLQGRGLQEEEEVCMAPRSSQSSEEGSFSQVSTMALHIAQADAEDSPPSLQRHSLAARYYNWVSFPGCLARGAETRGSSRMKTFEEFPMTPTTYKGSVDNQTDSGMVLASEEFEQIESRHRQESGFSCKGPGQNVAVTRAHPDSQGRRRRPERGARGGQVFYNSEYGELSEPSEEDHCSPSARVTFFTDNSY
T5 sequence (P04626 23-1255): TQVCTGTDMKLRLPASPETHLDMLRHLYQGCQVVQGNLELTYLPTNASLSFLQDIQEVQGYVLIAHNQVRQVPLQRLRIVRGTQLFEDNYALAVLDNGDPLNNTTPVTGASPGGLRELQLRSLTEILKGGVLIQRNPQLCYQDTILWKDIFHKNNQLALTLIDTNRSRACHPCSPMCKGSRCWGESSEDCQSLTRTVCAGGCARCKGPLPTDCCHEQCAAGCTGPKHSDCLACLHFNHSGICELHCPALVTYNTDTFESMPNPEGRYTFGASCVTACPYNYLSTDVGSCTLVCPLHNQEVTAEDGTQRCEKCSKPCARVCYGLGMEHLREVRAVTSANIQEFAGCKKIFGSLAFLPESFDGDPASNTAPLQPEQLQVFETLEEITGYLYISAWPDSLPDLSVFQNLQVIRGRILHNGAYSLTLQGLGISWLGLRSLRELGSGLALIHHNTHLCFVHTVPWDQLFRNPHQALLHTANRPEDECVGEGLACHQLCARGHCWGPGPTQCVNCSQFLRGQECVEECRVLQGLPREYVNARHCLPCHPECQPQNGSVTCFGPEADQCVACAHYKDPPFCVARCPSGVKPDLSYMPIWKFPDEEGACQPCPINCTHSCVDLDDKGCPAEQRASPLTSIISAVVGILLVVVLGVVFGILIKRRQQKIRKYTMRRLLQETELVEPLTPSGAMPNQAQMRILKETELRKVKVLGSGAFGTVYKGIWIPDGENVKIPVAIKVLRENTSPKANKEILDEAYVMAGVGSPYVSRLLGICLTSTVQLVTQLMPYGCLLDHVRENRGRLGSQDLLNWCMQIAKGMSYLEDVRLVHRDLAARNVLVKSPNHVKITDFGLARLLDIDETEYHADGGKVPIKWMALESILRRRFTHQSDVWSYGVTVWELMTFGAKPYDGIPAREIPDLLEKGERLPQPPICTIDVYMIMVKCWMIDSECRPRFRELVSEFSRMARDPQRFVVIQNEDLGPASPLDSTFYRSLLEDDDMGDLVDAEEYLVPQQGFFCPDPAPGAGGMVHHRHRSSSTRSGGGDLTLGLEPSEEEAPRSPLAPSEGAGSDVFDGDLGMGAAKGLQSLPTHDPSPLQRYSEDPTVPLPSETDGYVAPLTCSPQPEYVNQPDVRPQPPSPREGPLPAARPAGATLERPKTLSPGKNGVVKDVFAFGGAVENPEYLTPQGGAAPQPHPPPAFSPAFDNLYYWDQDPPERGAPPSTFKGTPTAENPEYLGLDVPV
T3 sequence (Q96GD4 whole entry): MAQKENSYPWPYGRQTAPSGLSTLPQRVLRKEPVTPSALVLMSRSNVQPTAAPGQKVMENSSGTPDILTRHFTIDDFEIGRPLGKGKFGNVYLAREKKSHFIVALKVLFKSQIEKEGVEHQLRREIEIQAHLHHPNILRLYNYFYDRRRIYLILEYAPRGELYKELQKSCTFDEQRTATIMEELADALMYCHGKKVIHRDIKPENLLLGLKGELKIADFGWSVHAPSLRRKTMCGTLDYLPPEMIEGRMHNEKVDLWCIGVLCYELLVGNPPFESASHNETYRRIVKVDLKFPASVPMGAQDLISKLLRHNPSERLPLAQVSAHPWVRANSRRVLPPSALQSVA
T2 sequence (P31749 whole entry): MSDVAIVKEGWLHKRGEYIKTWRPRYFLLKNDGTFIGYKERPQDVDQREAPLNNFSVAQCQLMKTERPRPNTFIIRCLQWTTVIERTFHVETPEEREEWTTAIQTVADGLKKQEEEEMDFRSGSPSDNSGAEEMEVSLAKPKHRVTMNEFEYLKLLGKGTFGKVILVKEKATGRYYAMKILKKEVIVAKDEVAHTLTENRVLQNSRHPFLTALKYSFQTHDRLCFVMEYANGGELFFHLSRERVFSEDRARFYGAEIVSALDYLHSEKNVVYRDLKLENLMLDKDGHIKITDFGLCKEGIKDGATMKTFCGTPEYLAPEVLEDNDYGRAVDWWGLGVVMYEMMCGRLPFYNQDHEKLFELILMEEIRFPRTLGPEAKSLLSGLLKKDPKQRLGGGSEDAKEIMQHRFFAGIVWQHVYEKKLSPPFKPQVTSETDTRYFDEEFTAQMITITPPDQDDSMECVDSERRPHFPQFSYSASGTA

SMILES | IC50 [1, 10] [µM] | IC50 [2, 11] [µM] | IC50 [3, 12] [µM] | IC50 [4, 13] [µM] | IC50 [5, 14] [µM] | IC50 [6, 15] [µM] | IC50 [7, 16] [µM] | IC50 [8, 17] [µM] | IC50 [9, 18] [µM] | IC50 [1] [µM] | IC50 [2] [µM] | IC50 [3] [µM] | IC50 [4] [µM] | IC50 [5] [µM] | IC50 [6] [µM] | IC50 [7] [µM] | IC50 [8] [µM] | IC50 [9] [µM]
O=c1ccc(=O)c2c1c1c(=O)c3ccccc3c1n2Cc1ccccc1 [Compound 6c, 5-Benzyl 5,6,9,10-tetrahydroindeno[1,2-b]indole-6,9,10-trione] | > 10 | > 10 | > 10 | 3.9 | 7.6 | 7.5 | > 10 | > 10 | 4.4 |  |  |  |  |  |  |  |  | 
CC(C)n1c2c(c3c1-c1ccccc1C3=O)C(=O)CCC2 [Compound 4b, 5-Isopropyl-5,6,7,8-tetrahydroindeno[1,2-b]indole-9,10-dione] |  |  |  |  |  |  |  |  |  | > 10 | > 10 | > 10 | > 10 | > 10 | > 10 | > 10 | > 10 | > 10
CC(C)n1c2c(=O)ccc(=O)c2c2c(=O)c3ccccc3c21 [Compound 6b, 5-Isopropyl-5H-indeno[1,2-b]indole-6,9,10-trione] | > 10 | 9.3 | 5.4 | 1.7 | > 10 | 0.96 | > 10 | 5.8 | 9.3 |  |  |  |  |  |  |  |  | 

From US8133913B2, “Substituted indeno [1,2-b]indole derivatives as novel inhibitors of protein kinase CK2 and their use as tumor therapeutic agents, cytostatics and diagnostic aids” (Heinrich-Heine Universitat Dusseldof, priority 2006, dated 2012)
